Source: patent US5302399A, “Slow-releasing pharmaceuticals prepared with alginic acid” (Snow Brand Milk Products Co., Ltd., priority 1988, dated 1994)

Legend:
in vivo = experiment: in vivo; set-up: species or system Male beagle dogs; settings: dog, po
Excerpt: Water was given ad libitum.
Water was given ad libitum during the test period.
In this test, alginic acid gel beads prepared using the low viscosity alginic acid gel beads (IL2, Kimizu Chemicals) were used.

clinical = experiment: clinical; set-up: species or system healthy human adults; settings: in vivo, po

`CC(C)NCC(O)COc1cccc2[nH]ccc12` (stereo not shown) [Pindolol powder, pindolol] gave an AUC at 6 h (in vivo; 2.5 mg/kg) of 238 ng·h/mL, an MRT at 6 h (in vivo; 2.5 mg/kg) of 1.74 h and an AUC at 12 h (in vivo; 5 mg/kg) of 311 ng·h/mL. It also gave an MRT at 12 h (in vivo; 5 mg/kg) of 1.98 h, an MRT (clinical; human) of 3.82 ± 0.32 h and a Tmax (clinical; human) of ~1 h. The VRT (clinical) was 7.44 ± 0.54 h^2.
